Measured values published in publication PMC4078884 (Chemical science (Royal Society of Chemistry : 2010), 2014).

Key:
EcIspG = biological target: T1, EcIspG (Escherichia coli, UniProt P62620); test: CW-EPR; assay type: binding; settings: 80 eq dithionite, 8 K
T1 sequence (P62620 1-372): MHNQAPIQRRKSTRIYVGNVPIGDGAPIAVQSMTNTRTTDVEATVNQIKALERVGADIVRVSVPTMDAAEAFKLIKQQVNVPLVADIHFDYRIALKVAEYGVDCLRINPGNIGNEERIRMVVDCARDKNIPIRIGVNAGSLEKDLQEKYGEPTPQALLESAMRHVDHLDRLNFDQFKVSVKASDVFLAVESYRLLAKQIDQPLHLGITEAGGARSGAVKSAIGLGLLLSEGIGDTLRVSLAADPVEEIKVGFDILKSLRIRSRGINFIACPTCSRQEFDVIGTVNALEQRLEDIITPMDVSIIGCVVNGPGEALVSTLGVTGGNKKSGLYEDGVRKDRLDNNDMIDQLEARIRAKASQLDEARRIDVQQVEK

PaIspG = biological target: T2, PaIspG (Pseudomonas aeruginosa, UniProt Q9HXJ4); test: CW-EPR; assay type: binding; settings: 80 eq dithionite, 8 K
T2 sequence (Q9HXJ4 1-371): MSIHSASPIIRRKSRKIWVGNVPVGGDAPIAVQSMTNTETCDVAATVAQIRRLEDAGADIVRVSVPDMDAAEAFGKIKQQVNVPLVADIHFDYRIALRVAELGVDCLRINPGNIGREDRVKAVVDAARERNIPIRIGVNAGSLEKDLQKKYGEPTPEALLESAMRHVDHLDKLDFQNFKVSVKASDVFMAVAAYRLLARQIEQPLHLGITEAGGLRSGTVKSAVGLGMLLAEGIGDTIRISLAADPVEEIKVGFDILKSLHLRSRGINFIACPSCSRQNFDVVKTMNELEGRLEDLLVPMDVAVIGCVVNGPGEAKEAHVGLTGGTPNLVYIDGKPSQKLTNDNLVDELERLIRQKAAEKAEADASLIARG

## C/C(=C\COP(=O)(O)OP(=O)(O)O)CS [compound 8, thiolo-HMBPP]
EcIspG
  CW-EPR: E. coli (A, D)
PaIspG
  CW-EPR: P. aeruginosa (B, E)
